Reference: patent publication US7556930B2, “CD39L3 and its role in diabetes” (Metabolex Inc., priority 2005, dated 2009)
Read-outs that look alike come from different tables or passages of the source.

What was measured:
full length human CD39L3 [1] = target: T1, full length human CD39L3 (Homo sapiens, UniProt O75355, A496V); assay: Piper Phosphate Assay of CD39L3 nucleotide hydrolysis activity in transiently transfected HEK293 cells; assay type: biochemical
T1 construct: Cells were transiently transfected with the full length human CD39L3 clone; expressed in transfected cells; host or cells: HEK293 cells, transiently transfected; frozen and thawed intact cells
T1 sequence (O75355 1-529 A496V): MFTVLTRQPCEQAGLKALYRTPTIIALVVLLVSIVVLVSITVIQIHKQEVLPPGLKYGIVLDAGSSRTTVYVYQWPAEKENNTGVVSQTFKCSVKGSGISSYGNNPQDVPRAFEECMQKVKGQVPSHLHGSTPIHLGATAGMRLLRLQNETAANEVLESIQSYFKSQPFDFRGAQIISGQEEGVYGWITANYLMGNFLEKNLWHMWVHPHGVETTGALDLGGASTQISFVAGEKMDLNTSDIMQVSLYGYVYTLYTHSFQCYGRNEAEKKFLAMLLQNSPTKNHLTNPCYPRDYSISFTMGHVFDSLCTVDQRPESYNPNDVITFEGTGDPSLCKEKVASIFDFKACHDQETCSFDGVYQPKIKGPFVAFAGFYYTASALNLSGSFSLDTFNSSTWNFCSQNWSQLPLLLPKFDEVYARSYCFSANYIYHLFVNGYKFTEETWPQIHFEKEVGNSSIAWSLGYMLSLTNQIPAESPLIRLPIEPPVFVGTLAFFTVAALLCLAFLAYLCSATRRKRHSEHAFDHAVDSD
Method: (§1) FIG. 4 illustrates the Km of ATP determined for full length human CD39L3 in transiently transfected HEK293 cells. The Km of ATP values determined under two concentrations of each cation source: CaCl2 and MgCl2. […] Activity assays were performed with the Piper Phosphate Assay (Molecular Probes).
(§2) FIG. 5 illustrates the Km of ADP determined for full length human CD39L3 in transiently transfected HEK293 cells. The Km of ADP values determined under two concentrations of each cation source: CaCl2 and MgCl2. […] Activity assays were performed with the Piper Phosphate Assay (Invitrogen).
(§3) FIG. 6 illustrates the inhibition of CD39L3 examined with the general ectoATPase inhibitor, ARL 67156. HEK293 cells were transiently transfected with full length human CD39L3. […] Activity assays were performed with the Piper Phosphate Assay (Molecular Probes).
(§4) As the activity of CD39L3 involves the hydrolysis of nucleoside triphosphates and diphosphates, Molecular Probes' Piper Phosphate Assay Kit™, which is an assay that detects free phosphate, a product of the hydrolysis, was used.
(§5) Cells were transiently transfected with the full length human CD39L3 clone were measured for nucleotide hydrolysis activity in suspension or adhered to the plate, within an isotonic buffer including the required cation cofactor, calcium or magnesium. Batches of transiently transfected CD39L3 cells were produced and frozen until use.
(§6) Using cells that were frozen and thawed, the Piper Phosphate Assay was used to determine the Km of ATP and ADP for the full length human CD39L3 clone (FIGS. 4 and 5). In addition, to validate the detection of an inhibitor with this assay format, a general ectoATPase inhibitor, ARL 67156, was examined.

full length human CD39L3 [2] = target: T2, full length human CD39L3 (Homo sapiens, UniProt O75355); assay: as above; assay type: biochemical; conditions: HEK293 cells transiently transfected with full length human CD39L3, read-out: IC50, inhibition of CD39L3
T2 construct: Cells were transiently transfected with the full length human CD39L3 clone; expressed in transfected cells; host or cells: HEK293 cells, transiently transfected; frozen and thawed intact cells
T2 sequence (O75355 1-529 A496V): T1 sequence (O75355 1-529 A496V)
Method: as §1, §2, §3, §4, §5, §6

Nc1ncnc2c1ncn2[C@@H]1O[C@H](COP(=O)(O)OP(=O)(O)O)[C@@H](O)[C@H]1O [ADP]
Km (full length human CD39L3 [1]; 1 mM CaCl2, read-out: Km of ADP): 42 µM
Km (full length human CD39L3 [1]; 1 mM MgCl2, read-out: Km of ADP): 35 µM
Km (full length human CD39L3 [1]; 5 mM CaCl2, read-out: Km of ADP): 39 µM
Km (full length human CD39L3 [1]; 5 mM MgCl2, read-out: Km of ADP): 44 µM

CCN(CC)c1ncnc2c1ncn2[C@@H]1O[C@H](COP(=O)(O)OP(=O)(O)C(Br)(Br)P(=O)(O)O)[C@@H](O)[C@H]1O [ARL 67156]
IC50 (full length human CD39L3 [2]; 40 uM ADP+5 mM CaCl2): 59 µM
IC50 (full length human CD39L3 [2]; 40 uM ADP+5 mM MgCl2): 57 µM
IC50 (full length human CD39L3 [2]; 65 μM ATP+5 mM CaCl2): 49 µM
IC50 (full length human CD39L3 [2]; 65 uM ATP+5 mM MgCl2): 59 µM

Nc1ncnc2c1ncn2[C@@H]1O[C@H](COP(=O)(O)OP(=O)(O)OP(=O)(O)O)[C@@H](O)[C@H]1O [ATP]
Km (full length human CD39L3 [1]; 1 mM CaCl2, read-out: Km of ATP): 105 µM
Km (full length human CD39L3 [1]; 1 mM MgCl2, read-out: Km of ATP): 60 µM
Km (full length human CD39L3 [1]; 5 mM CaCl2, read-out: Km of ATP): 85 µM
Km (full length human CD39L3 [1]; 5 mM MgCl2, read-out: Km of ATP): 52 µM
